Series [1] has as its system NTUB1 cells. In words: MTT cytotoxicity assay, NTUB1 cells. The class given is cell-based, human. The settings on record: for IC50: mean ± SD, n = 3-5. An excerpt: (§1) The cell lines of the present invention were an human urothelial carcinoma cell line (NTUB1), a human prostate cancer cell line (PC3), a human lung adenocarcinoma epithelial cell line (A549) and a SV-40 immortalized human uroepithelial cell line (SV-HUC1). However, the cell lines applied in the present invention includes but not limit in NTUB1, PC3, A549 and SV-HUC1 cells. Other cell lines having the same characteristics or not exactly the same characteristics are able to be used in the present invention. NTUB1, PC3 and A549 cells were maintained in RPMI 1640 and SV-HUC1 cells were maintained in F12 medium supplemented with 10% fetal bovine serum (FBS), 100 unit/mL penicillin-G, 100 μg/mL streptomycin and 2 mM glutamine. The cells were cultured at 37° C. in a humidified atmosphere containing 5% carbon dioxide.
(§2) The cytotoxic effect of compounds 1 to 18 of the present invention and cisplatin (positive control) on the cell lines was evaluated using 3-[4,5-dimethylthiazol-2-yl]-2,5-diphenyltetrazolium bromide (MTT) assay. Briefly, the cells were plated at a density of 1800 cells/well in 96-well plates and incubated in the presence of graded concentrations of compounds 1 to 18 and cisplatin at 37° C. for 72 hours. At the end of the culture period, 50 μL of MTT ([…] in PBS) was added to each well and allowed to react for 3 hours. Following centrifugation of plates at 1000 g for 10 minutes, media were removed and 150 μL dimethyl sulfoxide (DMSO) were added to each well. The proportions of surviving cells were determined by absorbance spectrometry at 540 nm. The cell viability was expressed as a percentage to the viable cells of control culture condition. The IC50 value of each group were calculated by the median-effect analysis and presented as mean±standard deviation (SD).

For series [2], the system named is PC3 cells. Briefly: MTT cytotoxicity assay, PC3 cells. It counts as cell-based, human. The note with it: for IC50: mean ± SD, n = 3-5.
Excerpt: as §1, §2

`CCOC(=O)c1ccc(/C=C/C(=O)c2cc(OC)ccc2OC)cc1` (hydrate or solvate) [Compound 3, 4-ethoxycarbonyl-2′,5′-dimethoxychalcone] displayed a melting point of 118 to 119 °C.
With `COc1ccc(OC)c(C(=O)/C=C/c2ccc(C(=O)O)cc2)c1` [Compound 1, 4-carboxyl-2′,5′-dimethoxychalcone], the melting point lay in the range of 214 to 215 °C. In series [1], the “cytotoxicity against NTUB1 cells (in words)” value was “significantly cytotoxic activities”. This compound had an IC50 in series [1] (Homo sapiens, NTUB1, 72 hours) of 5.7 ± 0.68 µM. The compound also registered a concentration for half-maximal inhibition (IC50) in series [2] (Homo sapiens, PC-3, 72 hours) of 7.24 ± 0.58 µM.
Compound `COC(=O)c1ccc(/C=C/C(=O)c2cc(OC)ccc2OC)cc1` [Compound 2, 4-methoxycarbonyl-2′,5′-dimethoxychalcone] gave a melting point of 118 to 119 °C. The same compound returned an IC50 in series [1] (Homo sapiens, NTUB1, 72 hours) of 3.51 ± 0.45 µM. In series [2] (Homo sapiens, PC-3, 72 hours), this compound came in with an IC50 of 4.85 ± 0.11 µM.
As for `CCOC(=O)c1ccc(/C=C/C(=O)c2cc(OC)ccc2OC)cc1` [Compound 3, 4-ethoxycarbonyl-2′,5′-dimethoxychalcone], the IC50 is 4.49 ± 0.98 µM in series [1] (Homo sapiens, NTUB1, 72 hours) and 5.7 ± 0.43 µM in series [2] (Homo sapiens, PC-3, 72 hours).
Regarding `CCCOC(=O)c1ccc(C=CC(=O)c2cc(OC)ccc2OC)cc1` [Compound 4, propoxycarbonyl-2′,5′-dimethoxychalcone], the IC50 in series [1] (72 hours) was 6.01 ± 0.3 µM; in series [2] (72 hours), 26.9 µM.
As to `COc1ccc(OC)c(C(=O)/C=C/c2ccc(C(=O)OC(C)C)cc2)c1` [Compound 5, 4-isopropoxycarbonyl-2′,5′-dimethoxychalcone], the IC50 in series [1] (Homo sapiens, NTUB1, 72 hours) worked out at 4.42 ± 0.5 µM; in series [2] (Homo sapiens, PC-3, 72 hours), 6.74 ± 1.34 µM.
In the same order, the values of `COc1ccc(OC)c(C(=O)/C=C/c2ccc(C(=O)OCc3ccccc3)cc2)c1` [Compound 6, 4-benzyloxycarbonyl-2′,5′-dimethoxychalcone] are 13.3 ± 2.86 µM and 17.9 ± 0.5 µM.
In the same order, the values of `COc1ccc(OC)c(C(=O)/C=C/c2ccc(C(=O)OCC=C(C)C)cc2)c1` [Compound 7, 4-(3-methyl-but-2-enyloxycarbonyl)-2′,5′-dimethoxychalcone] are 13.4 ± 0.78 µM and over 50 µM.
On to `CNC(=O)c1ccc(/C=C/C(=O)c2cc(OC)ccc2OC)cc1` [Compound 8, 4-methylcarbamoyl-2′,5′-dimethoxychalcone], for which the melting point was in the range of 217 to 218 °C. The compound also gave an IC50 in series [1] (Homo sapiens, NTUB1, 72 hours) of 2.2 ± 0.37 µM. Moreover, in series [2] (Homo sapiens, PC-3, 72 hours), half-maximal inhibition (IC50) required 2.13 ± 0.21 µM.
Regarding `CCCNC(=O)c1ccc(/C=C/C(=O)c2cc(OC)ccc2OC)cc1` [Compound 10, 4-propylcarbamoyl-2′,5′-dimethoxychalcone], the “cytotoxicity against NTUB1 cells (in words)” value in series [1] is listed as “significantly enhanced the cytotoxicity”. The IC50 in series [1] (Homo sapiens, NTUB1, 72 hours) was found to be 2.26 ± 0.31 µM; in series [2] (Homo sapiens, PC-3, 72 hours), 1.5 ± 0.22 µM. Also, the “cytotoxicity against PC3 cells (in words)” value in series [2] is “significantly enhanced the cytotoxicity”.
On to `COc1ccc(OC)c(C(=O)/C=C/c2ccc(C(=O)N(C)C)cc2)c1` [Compound 12, 4-dimethylcarbamoyl-2′,5′-dimethoxychalcone], for which the IC50 in series [1] (Homo sapiens, NTUB1, 72 hours) is 3.89 ± 0.21 µM; in series [2] (Homo sapiens, PC-3, 72 hours), 4.58 ± 1.05 µM.
As to `CCN(CC)C(=O)c1ccc(/C=C/C(=O)c2cc(OC)ccc2OC)cc1` [Compound 14, 4-diethylcarbamoyl-2′,5′-dimethoxychalcone], the IC50 in series [1] (Homo sapiens, NTUB1, 72 hours) was 2.69 ± 0.47 µM; in series [2] (Homo sapiens, PC-3, 72 hours), 3.79 ± 0.56 µM.
As to `COc1ccc(OC)c(C(=O)C=Cc2ccc(C(=O)N(C)CCO)cc2)c1` [Compound 16, 4-(2-hydroxyethyl)methyl-carbamoyl-2′,5′-dimethoxychalcone], the IC50 in series [1] (72 hours) was 4.42 ± 0.15 µM; in series [2] (72 hours), 5.75 ± 1.27 µM.
As for `COc1ccc(OC)c(C(C=Cc2ccc(C(=O)NC3CC3)cc2)=NC2CC2)c1` [Compound 17, N-cyclopropyl-4-[3-cyclopropylimino-3-(2′,5′-dimethoxy-phenyl)-propenyl]-benzamide], the IC50 in series [1] (72 hours) was 3.57 ± 0.47 µM; in series [2] (72 hours), 4.26 ± 0.81 µM.
For the compound `COc1ccc(OC)c(C(=O)/C=C/c2ccc(C(=O)O)s2)c1` [Compound 18], the melting point is 237 to 238 °C. In addition, the “cytotoxicity against NTUB1 cells (in words)” value in series [1] is recorded as “no significant cytotoxicity”. In series [1] (Homo sapiens, NTUB1, 72 hours), this compound came in with an IC50 of over 50 µM.
